Reference: ChEMBL document CHEMBL5465560, “Selectivity Literature for EUbOPEN Chemogenomic Library” (2024)

How the values were obtained:
[1] = molecular target: T1, Serine/threonine-protein kinase tousled-like 1 (Homo sapiens) (UniProt Q9UKI8); experiment: Selectivity interaction (KinomeScan (DiscoverX)) EUB0000229b TLK1; conditions: at 10 µM
T1 sequence (whole entry): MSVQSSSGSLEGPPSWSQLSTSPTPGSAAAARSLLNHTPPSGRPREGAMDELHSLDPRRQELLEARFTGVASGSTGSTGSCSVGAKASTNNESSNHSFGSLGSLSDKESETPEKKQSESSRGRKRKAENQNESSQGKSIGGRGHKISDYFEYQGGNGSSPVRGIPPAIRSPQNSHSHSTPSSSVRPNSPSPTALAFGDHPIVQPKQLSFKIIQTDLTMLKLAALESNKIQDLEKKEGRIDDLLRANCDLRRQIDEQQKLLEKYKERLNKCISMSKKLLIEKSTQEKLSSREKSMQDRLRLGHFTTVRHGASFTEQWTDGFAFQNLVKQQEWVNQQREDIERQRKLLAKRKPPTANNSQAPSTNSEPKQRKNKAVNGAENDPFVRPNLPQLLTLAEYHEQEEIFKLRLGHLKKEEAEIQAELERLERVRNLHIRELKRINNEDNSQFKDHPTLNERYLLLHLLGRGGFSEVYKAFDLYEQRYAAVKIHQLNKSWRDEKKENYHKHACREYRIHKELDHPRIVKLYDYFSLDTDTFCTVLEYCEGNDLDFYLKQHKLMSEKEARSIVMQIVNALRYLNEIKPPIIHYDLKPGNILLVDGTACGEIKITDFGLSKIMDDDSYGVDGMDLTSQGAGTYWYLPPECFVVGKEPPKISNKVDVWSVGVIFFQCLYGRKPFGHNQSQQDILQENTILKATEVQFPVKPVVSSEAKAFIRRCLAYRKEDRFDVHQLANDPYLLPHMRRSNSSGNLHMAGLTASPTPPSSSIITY

[2] = molecular target: DNA (cytosine-5)-methyltransferase 3B (Homo sapiens) (UniProt Q9UBC3); conditions: at 10 µM
[3] = molecular target: Cyclin-dependent kinase 2 (Homo sapiens, UniProt P24941); experiment: Selectivity interaction (KinomeScan (DiscoverX)) EUB0001079a CDK2; conditions: at 1 µM
D(3) dopamine receptor = D(3) dopamine receptor (Homo sapiens, UniProt P35462); experiment: Selectivity interaction (GPCR panel (PDSP screen)) EUB0001079a DRD3; conditions: at 10 µM
Sequence of D(3) dopamine receptor (P35462 whole entry): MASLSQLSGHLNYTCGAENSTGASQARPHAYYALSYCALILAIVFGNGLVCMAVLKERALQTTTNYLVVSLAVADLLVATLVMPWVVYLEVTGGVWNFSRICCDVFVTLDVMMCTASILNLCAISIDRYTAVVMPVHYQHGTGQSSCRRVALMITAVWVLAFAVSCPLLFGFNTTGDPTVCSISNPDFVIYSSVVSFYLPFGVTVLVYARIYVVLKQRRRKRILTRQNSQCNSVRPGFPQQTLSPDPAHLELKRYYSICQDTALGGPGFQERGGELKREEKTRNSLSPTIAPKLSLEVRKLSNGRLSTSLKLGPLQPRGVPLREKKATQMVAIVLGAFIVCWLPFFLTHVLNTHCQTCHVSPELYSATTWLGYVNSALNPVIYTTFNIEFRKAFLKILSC

[4] = molecular target: T2, Serine/threonine-protein kinase D1 (Homo sapiens) (UniProt Q15139); experiment: Selectivity interaction (Upstate Kinase Profiler service (Millipore)) EUB0000056c PRKD1; conditions: at 1 µM
T2 sequence (whole entry): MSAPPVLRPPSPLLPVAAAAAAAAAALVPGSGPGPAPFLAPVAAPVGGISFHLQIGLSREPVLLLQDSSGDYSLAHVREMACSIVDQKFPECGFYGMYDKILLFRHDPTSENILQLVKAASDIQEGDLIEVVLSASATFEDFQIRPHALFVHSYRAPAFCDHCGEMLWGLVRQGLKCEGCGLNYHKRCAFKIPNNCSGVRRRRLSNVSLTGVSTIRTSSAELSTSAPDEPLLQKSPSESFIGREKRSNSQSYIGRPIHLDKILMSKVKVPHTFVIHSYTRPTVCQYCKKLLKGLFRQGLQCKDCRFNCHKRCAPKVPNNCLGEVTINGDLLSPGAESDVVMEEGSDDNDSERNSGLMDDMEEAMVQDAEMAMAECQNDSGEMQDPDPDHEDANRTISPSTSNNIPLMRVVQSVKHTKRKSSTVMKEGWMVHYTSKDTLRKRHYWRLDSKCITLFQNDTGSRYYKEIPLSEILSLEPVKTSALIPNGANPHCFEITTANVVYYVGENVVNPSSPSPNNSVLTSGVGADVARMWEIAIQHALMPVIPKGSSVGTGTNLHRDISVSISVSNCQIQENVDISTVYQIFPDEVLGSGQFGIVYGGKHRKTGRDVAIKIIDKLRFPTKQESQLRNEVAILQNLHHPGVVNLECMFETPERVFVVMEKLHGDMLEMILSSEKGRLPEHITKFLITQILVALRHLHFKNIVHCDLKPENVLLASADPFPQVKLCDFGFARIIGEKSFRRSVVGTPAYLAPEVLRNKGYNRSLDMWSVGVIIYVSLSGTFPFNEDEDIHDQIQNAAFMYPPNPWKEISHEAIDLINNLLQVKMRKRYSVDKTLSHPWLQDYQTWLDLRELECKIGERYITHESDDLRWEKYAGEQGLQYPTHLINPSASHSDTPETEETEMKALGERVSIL

[5] = test system: Phosphatidylinositol 4,5-bisphosphate 3-kinase catalytic subunit alpha isoform (Homo sapiens), P42336 [C420R]; conditions: at 10 µM
Sequence of Phosphatidylinositol 4,5-bisphosphate 3-kinase catalytic subunit alpha isoform (Homo sapiens), P42336 [C420R] (P42336 whole entry C420R, canonical isoform): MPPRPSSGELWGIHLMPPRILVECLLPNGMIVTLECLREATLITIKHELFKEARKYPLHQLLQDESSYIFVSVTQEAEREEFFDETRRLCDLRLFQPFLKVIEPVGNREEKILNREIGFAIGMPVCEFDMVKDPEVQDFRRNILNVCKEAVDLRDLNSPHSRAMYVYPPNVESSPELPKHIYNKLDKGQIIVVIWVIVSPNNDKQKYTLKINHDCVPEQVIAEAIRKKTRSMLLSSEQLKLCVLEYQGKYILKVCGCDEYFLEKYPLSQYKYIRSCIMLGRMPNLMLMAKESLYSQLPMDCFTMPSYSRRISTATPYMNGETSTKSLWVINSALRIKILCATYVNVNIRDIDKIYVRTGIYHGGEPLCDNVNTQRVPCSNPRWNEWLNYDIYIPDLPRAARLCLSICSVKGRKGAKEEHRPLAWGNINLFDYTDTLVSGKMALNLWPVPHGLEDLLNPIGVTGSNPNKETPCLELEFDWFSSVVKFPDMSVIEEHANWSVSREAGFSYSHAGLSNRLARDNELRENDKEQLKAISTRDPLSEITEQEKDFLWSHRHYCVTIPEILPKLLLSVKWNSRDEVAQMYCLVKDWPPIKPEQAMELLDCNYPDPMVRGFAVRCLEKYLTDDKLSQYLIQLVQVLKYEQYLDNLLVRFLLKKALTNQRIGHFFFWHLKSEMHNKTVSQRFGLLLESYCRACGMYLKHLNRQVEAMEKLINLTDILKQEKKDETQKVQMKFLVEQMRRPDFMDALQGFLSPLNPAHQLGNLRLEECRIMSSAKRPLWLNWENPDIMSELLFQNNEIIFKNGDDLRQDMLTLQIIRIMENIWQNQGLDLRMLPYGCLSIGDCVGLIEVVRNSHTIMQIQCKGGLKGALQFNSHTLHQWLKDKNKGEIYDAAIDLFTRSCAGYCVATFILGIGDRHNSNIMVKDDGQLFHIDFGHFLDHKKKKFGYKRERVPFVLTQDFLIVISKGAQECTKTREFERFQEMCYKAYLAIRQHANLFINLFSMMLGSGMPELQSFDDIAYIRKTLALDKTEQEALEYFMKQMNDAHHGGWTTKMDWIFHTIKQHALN

[6] = molecular target: T3, Serine/threonine-protein kinase greatwall (Homo sapiens) (UniProt Q96GX5); experiment: Selectivity interaction (ActivX KiNativ screen (kinase selectivity in THP-1 cell lysates)) EUB0000639a MASTL; type: subcellular; conditions: lysate, at 1 µM
T3 sequence (whole entry): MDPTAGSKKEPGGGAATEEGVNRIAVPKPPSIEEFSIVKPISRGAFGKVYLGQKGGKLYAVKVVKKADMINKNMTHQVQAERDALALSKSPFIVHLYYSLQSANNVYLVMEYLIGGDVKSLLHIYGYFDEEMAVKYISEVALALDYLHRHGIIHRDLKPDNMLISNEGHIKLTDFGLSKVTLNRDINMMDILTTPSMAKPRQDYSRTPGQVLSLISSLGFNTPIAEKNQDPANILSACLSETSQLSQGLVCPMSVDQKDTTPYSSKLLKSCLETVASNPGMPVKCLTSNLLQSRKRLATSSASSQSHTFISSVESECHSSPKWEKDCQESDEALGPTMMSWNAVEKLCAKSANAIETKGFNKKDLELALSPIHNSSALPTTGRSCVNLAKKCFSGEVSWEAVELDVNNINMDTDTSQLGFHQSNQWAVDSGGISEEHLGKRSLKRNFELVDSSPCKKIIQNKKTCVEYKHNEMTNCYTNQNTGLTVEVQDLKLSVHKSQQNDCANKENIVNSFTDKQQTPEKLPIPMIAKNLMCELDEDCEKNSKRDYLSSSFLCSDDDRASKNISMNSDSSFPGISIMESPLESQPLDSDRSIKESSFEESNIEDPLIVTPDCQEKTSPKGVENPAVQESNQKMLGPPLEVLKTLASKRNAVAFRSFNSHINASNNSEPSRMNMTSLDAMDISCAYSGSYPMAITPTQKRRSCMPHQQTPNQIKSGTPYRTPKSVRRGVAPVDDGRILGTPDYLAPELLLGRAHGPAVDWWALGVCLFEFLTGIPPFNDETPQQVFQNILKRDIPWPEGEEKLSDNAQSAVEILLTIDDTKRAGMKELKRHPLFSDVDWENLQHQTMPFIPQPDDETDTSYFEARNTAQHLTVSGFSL

[7] = molecular target: Ribosomal protein S6 kinase alpha-4 (Homo sapiens) (UniProt O75676); experiment: Selectivity interaction (Kinase panel (Invitrogen)) EUB0000639a RPS6KA4; conditions: at 200 nM
Sequence of Ribosomal protein S6 kinase alpha-4 (Homo sapiens) (O75676 whole entry, looked up): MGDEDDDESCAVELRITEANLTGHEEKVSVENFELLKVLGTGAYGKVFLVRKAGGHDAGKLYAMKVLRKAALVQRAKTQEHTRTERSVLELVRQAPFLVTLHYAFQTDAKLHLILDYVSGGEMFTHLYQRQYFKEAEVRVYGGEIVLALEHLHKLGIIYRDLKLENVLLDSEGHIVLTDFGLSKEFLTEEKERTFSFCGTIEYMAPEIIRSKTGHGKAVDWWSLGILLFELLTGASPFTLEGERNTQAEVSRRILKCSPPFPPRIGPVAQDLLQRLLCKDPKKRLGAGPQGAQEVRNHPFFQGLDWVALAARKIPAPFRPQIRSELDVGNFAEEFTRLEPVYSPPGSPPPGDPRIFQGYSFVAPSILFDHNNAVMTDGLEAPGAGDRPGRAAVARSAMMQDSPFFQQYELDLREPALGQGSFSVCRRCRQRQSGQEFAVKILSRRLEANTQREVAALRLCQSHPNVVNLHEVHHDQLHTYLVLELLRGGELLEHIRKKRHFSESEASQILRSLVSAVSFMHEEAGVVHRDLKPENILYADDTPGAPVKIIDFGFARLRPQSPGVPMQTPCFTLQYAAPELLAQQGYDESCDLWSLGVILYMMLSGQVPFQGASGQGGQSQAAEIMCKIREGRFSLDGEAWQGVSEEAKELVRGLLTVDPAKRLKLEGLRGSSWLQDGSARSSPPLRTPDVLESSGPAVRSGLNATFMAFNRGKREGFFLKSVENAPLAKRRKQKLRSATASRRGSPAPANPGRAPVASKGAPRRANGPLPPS

Compound `COc1cc(N(C)c2ccnc3ccc(C(F)(F)F)cc23)cc(OC)c1OC` has a % binding [1] of 97%.
Compound `CNCCN1CCC(c2cc(CN(C)C(=O)c3cccc(Oc4ccccc4)c3)ccn2)CC1` has a % activity [2] of over 90%.
In the case of `Nc1cnc(N2CCc3cc(S(=O)(=O)Nc4c(F)cc(Cl)cc4F)cc(N4CCCC4=O)c32)nc1` [TP-020n], the % of control [3] is reported as 100% and the % of inhibition (D(3) dopamine receptor) is reported as -5.02%.
Work on `Cc1ccc(-c2ccc3c(ccc4sc5c(c43)NC[C@@H](C)NC5=O)n2)cn1` yielded a % of inhibition [4] of 19%.
`CNC(=O)Nc1ccc(-c2nc(N3CC4CCC(C3)O4)c3cnn(C4CCC5(CC4)OCCO5)c3n2)cc1` showed a % of control [5] of 11%.
`CC[C@@H]1[C@H](F)C(=O)N[C@@H]1COc1nccc2cc(C(N)=O)c(OC)cc12` [ZIMLOVISERTIB] was tested, and the % of inhibition [6] was 35.1% and the % of inhibition [7] was 4.43%.
